The source of these data is patent publication US20260085081A1, “PHOSPHATIDYLAMINE COMPOUNDS INCLUDING A PLURALITY OF TERTIARY AMINO GROUP STRUCTURES AND COMPOSITIONS THEREOF” (PEKING UNIVERSITY, priority 2022, published 2026).

A short description of data set [1]: Particle size of lipid nanoparticles (dynamic light scattering). It counts as physicochemical. The protocol:
The particle size of the lipid nanoparticles and the distribution (size, PDI) were determined by Malvern Zetasizer Nano ZS laser particle sizer according to dynamic light scattering (DLS). The samples were diluted 100-fold with PBS before measurement, and 1 mL was taken for measurement. The measurement was repeated three times in parallel for each sample.

Data set [2] relates to Fluc-mRNA (luciferase expression). Briefly: In vivo transfection efficiency of Fluc-mRNA lipid nanoparticles after intramuscular injection. To be noted: for expression in vivo compared with control MC3 / in vivo transfection (expression, FIG. 5): 3 μg Fluc-mRNA/mouse; for Intramuscular injection (PL/MC3) expression strength level: ratio of expression PL/MC3; for in vivo transfection (expression, FIG. 5): weight ratio lipid nanoparticle/RNA 10:1, DOPE or DSPC group. On the set-up: species or system mice. The protocol:
6 h after intramuscular injection of mRNA LNPs, mice were injected intraperitoneally with 0.2 mL […] (20 mg/mL PBS solution). After 10 min, mice were anesthetized with isoflurane in oxygen in a ventilated anesthesia room and imaged with an imaging system (IVIS, PerkinElmer), and luminescence was quantified using Living Image software (PerkinElmer).

Another data set concerns joint cavity. Briefly: Intra-articular injection of Fluc-mRNA LNPs, luciferase expression in the joint cavity (IVIS). It counts as in vivo, ICR mice.
For another data set, the system named is white adipocyte. Briefly: White adipocyte administration, expression relative to SM102. It counts as cell-based. The conditions noted are these: ratio of expression PL/SM102.
The nature of data set [3]: Summary of the strongest expressions over the administration routes. To be noted: strongest level of the three administrations.
Another data set relates to most cells and tissues. To be noted: reported; cited from earlier work.
The next data set concerns NIH-3T3 cells. Nature of the data set: Transfection efficiency of lipid nanoparticles in NIH-3T3 cells. To be noted: DOPE group LNP. It is filed as cell-based, murine. As to the method: The prepared cationic compounds (PL1, PL4, PL8, PL10, PL11, PL12, PL13, PL14, PL17, PL18, PL23, PL24, PL26, PL27, PL28, PL29, PL30, PL31, PL32, PL33, PL36, PL38, PL41, PL44, PL45, PL53, PL54, PL55, PL56, PL57, PL58, PL59, PL60, PL61, PL78, PL79, PL93, PL94, PL95, PL96, PL97, PL103), DOPE/DSPC, cholesterol, and DMG-PEG2000 are prepared with ethanol in a molar ratio of 35:16:46.5:2.5 to form the ethanol phase, and RNA is formulated into the aqueous phase with 50 mM citrate buffer solution at pH=4. Lipid nanoparticles are obtained by microfluidic mixing at aqueous phase:ethanol phase=3:1 (v/v), followed by dialysis purification in PBS at pH 7.4 overnight to remove ethanol.
(§1) Determination process included: preparing a 96-well plate, inoculating cells (4000 cells/well), adding 100 μL of medium, incubating at 37° C. overnight; after 24 h, adding lipid nanoparticles diluted with medium (achieving the final concentration of RNA of 10 µg/mL), incubating at 37° C. for 24 h, and then adding 50 μL of specialized luciferase substrate to each well, followed by detection using by a microplate reader (chemiluminescence).
FIG. 1A and FIG. 1B illustrate transfection of lipid nanoparticles of a DOPE group and a DSPC group in NIH3T3 cells according to some embodiments of the present disclosure. Specifically, for compounds PL1, PL4, PL6, PL8, PL10, PL11, PL12, lipid nanoparticles are prepared by DOPE and DSPC, respectively, according to an […] (Example 44). The transfection efficiency of these two groups of lipid nanoparticles in cells is first evaluated, and murine fibroblasts NIH-3T3 are selected for incubation (Example 47), and the results are shown in FIG. 1A and FIG. 1B. […] PL10, PL11, and PL12 all include two tertiary amino groups.

Data set [4] can be described thus: Encapsulation efficiency of lipid nanoparticles (RiboGreen assay). It counts as physicochemical. The protocol: The total RNA concentration and the encapsulation efficiency were determined using a RiboGreen assay. Determination process included: taking a black 96-well plate, adding 50 μL TE buffer/Triton X to A1-A8/B1-B8, respectively (A1-A6/B1-B6 for the standard curve, A7-8/B7-8 for samples), then adding the RNA TE (Tris-EDTA) dilution solutions (2 ng/μL, 1 ng/μL, 0.5 ng/μL, 0.25 ng/μL, 0.125 ng/μL, 0 ng/μL) to the above wells A1-A6/B1-B6 as the standard curve, adding 50 μL nanoparticle dilution solution to A7-A8/B7-B8, and shaking at 37° C. for 15 min, subsequently, adding 100 μL of RiboGreen solution (diluted 400-fold with TE buffer) to each well, and shaking for 3-5 min, and detecting the fluorescence intensity of each well by a microplate reader at an excitation wavelength of 485 nm and an emission wavelength of 515 nm.

Data set [5] concerns human hepatocellular carcinoma HepG2 cells. Briefly: Transfection efficiency of lipid nanoparticles in HepG2 cells. It counts as cell-based. The protocol:
as §1
FIG. 2A and FIG. 2B illustrate encapsulation efficiency of lipid nanoparticles and cell transfection efficiency according to some embodiments of the present disclosure. FIG. 2A is the encapsulation efficiency of lipid nanoparticles in the DOPE/DSPC groups, and FIG. 2B is the transfection efficiency in HepG2 cells. PL1, PL10, and PL12 from the DOPE group, and PL11 and PL12 from the DSPC group are selected to further explore the transfection efficiency in human hepatocellular carcinoma HepG2 cells. LNP is first prepared using microfluidic approach (Example 44) and the encapsulation efficiency of LNP is measured (Example 46), and the results are shown in FIG. 2A. […] PL10 has the best effect, which is 400-fold of that of LNPs in the control group MC3. The experiment also further illustrates that PL lipids have excellent cell transfection efficiency and stable effect in different cell lines.

The test system of the next data set is adipose tissue. Briefly: Intraperitoneal injection of Fluc-mRNA LNPs, expression and distribution. It is filed as in vivo, mice. To be noted: ratio of expression PL/SM102.

Procedure for joint cavity: Images of luciferase expression in the joint cavity are detected with an IVIS imaging system at 6 h, 12 h, 24 h, 48 h, 72 h, and 96 h after intra-articular injection of 2 μg of Fluc-mRNA LNPs (PL10, PL14, and PL17, n=3).

In the case of `CCCCC/C=C\C/C=C\CCCCCCCCOP(=O)(NCCCN1CCN(CCCN(CCCCCCCCCCCC)CCCCCCCCCCCC)CC1)OCCCCCCCC/C=C\C/C=C\CCCCC` [PL14], the nanoparticle particle size result in data set [1] (optimized formulation: decreased proportion of PEG, increased volume of aqueous phase) is reported as “around 200 nm”. Moreover, the “expression in vivo compared with control MC3” value in [2] (DOPE group, weight ratio 10:1) was “better than that of control MC3”. Also, the “enhancement of in vivo expression with respect to control MC3” value in data set [2] (DOPE group, weight ratio 10:1, 3 g Fluc-mRNA/mouse) is “an order of magnitude enhancement”. Moreover, in data set [2], the “Intramuscular injection (PL/MC3) expression strength level” value is listed as “A (A: ≥2)” and the “in vivo transfection (expression, FIG. 5)” value was “expressed”. The “expression efficiency after intra-articular injection” value in the data set on joint cavity (2 μg Fluc-mRNA LNPs, 6 h to 96 h) is “higher and more long-lasting expression efficiencies compared to both PL10 and PL17 LNPs”. The “distribution and expression outside the joint after intra-articular injection” value in the data set on joint cavity (liver) is “distributed and expressed non-specifically in the liver”. The “White adipocyte administration (PL/SM102) expression strength level” value in the data set with white adipocyte is “C (C: ≥0.1 and <1)”. Besides, in data set [3], the “Summary of the strongest expressions” value was “A (A: ≥2)”.
For the compound `CCCCCCCCCCCOC(=O)CCCCCN(CCO)CCCCCCCC(=O)OC(CCCCCCCC)CCCCCCCC` [SM102], the “expression compared with MC3” value with most cells and tissues was “at least ten-fold higher than that of MC3”.
Take `CCCCC/C=C\C/C=C\CCCCCCCCOP(=O)(NCCN(CCCCCCCCCCCC)CCCN(C)C)OCCCCCCCC/C=C\C/C=C\CCCCC` [PL10]: in the data set on NIH-3T3 cells, the “transfection efficiency relative to MC3 LNP” value worked out at 22 fold. The encapsulation efficiency entry is given as “around 50%” in [4] (DOPE LNP, microfluidic preparation); “more than 30%” in data set [4] (weight ratio cationic PL lipid/RNA 5:1 (lowest lipid)); “about 70%” in data set [4] (weight ratio cationic PL lipid/RNA 15:1 (most lipid)). Also, the “transfection efficiency relative to LNPs of control group MC3” value in [5] was determined as 400 fold. In addition, the figures for the particle size in data set [1] (weight ratio lipid nanoparticle/RNA 5:1) and in [1] (weight ratio lipid nanoparticle/RNA 15:1) were 200 nm and 150 nm, respectively. Besides, the “expression in vivo compared with control MC3” value in data set [2] (DOPE group, weight ratio 10:1) was “better than that of control MC3”. In addition, in data set [2], the “Intramuscular injection (PL/MC3) expression strength level” value is “A (A: ≥2)”. In addition, in data set [2] (weight ratio cationic lipid/RNA 15:1, 3 μg Fluc-mRNA), the “in vivo fluorescence signal” value was “no fluorescence signal”. For the same compound, the “in vivo transfection (expression, FIG. 5)” value in data set [2] is on record as “expressed”. In addition, the “in vivo expression relative to MC3 LNP” value is 3 fold in [2] (weight ratio lipid nanoparticles/RNA 5:1, 3 μg Fluc-mRNA) and 10 fold in data set [2] (weight ratio lipid nanoparticles/RNA 10:1, 3 μg Fluc-mRNA). The “White adipocyte administration (PL/SM102) expression strength level” value with white adipocyte is “C (C: ≥0.1 and <1)”. The “Intraperitoneal injection (PL/SM102) expression strength level” value in the data set with adipose tissue was “D (D: <0.1)”. In data set [3], the “Summary of the strongest expressions” value was “A (A: ≥2)”.
